Several values for one entry are separate records, joined by “and”; a condition that tells them apart may be missing. Equal entries are not always repeated. Where two headings read alike, the source gives them in different places.
Legend:
[1] = target: AChE in neural stem cells (Homo sapiens, UniProt P22303); assay: cell-based
AChE in SH-SY5Y cells = AChE in SH-SY5Y cells (Homo sapiens, UniProt P22303); assay: cell-based
recombinant human AChE [2] = target: T1, recombinant human AChE (Homo sapiens, UniProt P22303); assay: biochemical
T1 sequence (P22303 32-614): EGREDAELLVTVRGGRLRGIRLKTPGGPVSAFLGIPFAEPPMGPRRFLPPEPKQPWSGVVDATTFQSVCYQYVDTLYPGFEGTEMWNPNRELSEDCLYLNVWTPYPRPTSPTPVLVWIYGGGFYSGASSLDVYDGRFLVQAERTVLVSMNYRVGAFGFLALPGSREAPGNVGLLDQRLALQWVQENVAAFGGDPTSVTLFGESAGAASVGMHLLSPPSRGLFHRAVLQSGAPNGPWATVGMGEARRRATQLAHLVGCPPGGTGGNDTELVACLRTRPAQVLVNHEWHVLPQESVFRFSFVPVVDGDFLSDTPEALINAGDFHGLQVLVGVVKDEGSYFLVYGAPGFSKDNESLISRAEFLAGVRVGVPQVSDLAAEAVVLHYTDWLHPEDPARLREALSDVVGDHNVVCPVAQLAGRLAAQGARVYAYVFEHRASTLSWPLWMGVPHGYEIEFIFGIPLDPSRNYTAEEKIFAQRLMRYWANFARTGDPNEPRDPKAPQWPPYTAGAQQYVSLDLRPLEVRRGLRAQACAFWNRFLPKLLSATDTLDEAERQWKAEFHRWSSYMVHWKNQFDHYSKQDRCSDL

recombinant human AChE [3] = target: T1, recombinant human AChE; assay: biochemical; remark: listed apart in the source
[4] = target: AChE in SH-SY5Y spheroids (Homo sapiens, UniProt P22303); assay: cell-based; conditions: potency (IC50)
AChE in SH-SY5Y spheroids, sequence (P22303 32-614): as above

[5] = target: AChE in neural stem cell spheroids (Homo sapiens, UniProt P22303); assay: cell-based; conditions: potency (IC50)
AChE in neural stem cell spheroids, sequence (P22303 32-614): as above

recombinant human AChE [6] = target: T1, recombinant human AChE
recombinant human AChE [7] = target: T1, recombinant human AChE; assay: biochemical; remark: listed apart in the source
recombinant human AChE [8] = target: T1, recombinant human AChE; assay: biochemical; assay type: biochemical; conditions: for AC50: AC50 (uM)
[9] = potency (IC50), SH-SY5Y cells monolayer
[10] = Neural stem cell spheroid (24 h)
[11] = Neural stem cell spheroid (48 h)
[12] = potency (IC50), Enzyme with microsomes
Throughout, for IR or R: key: Reversible (R); Irreversible (IR); ND, not detected in enzyme-based AChE inhibition assay from current study.

AChE in neural stem cells, sequence (P22303 32-614): as above
AChE in SH-SY5Y cells, sequence (P22303 32-614): as above

SMILES | IC50 [1] | CC-v2 (curve classes) (AChE in SH-SY5Y cells) | IC50 (AChE in SH-SY5Y cells; IC50 (uM)) | IC50 (AChE in SH-SY5Y cells; [9]) | IC50 (recombinant human AChE [2]) | CC-v2 (curve classes) (recombinant human AChE [3]) | Efficacy (recombinant human AChE [3]) | IC50 (recombinant human AChE [3]; potency (IC50), Enzyme) | IC50 ([4]; SH-SY5Y spheroids (24 h)) | IC50 ([4]; SH-SY5Y spheroids (48 h)) | IC50 [5, 10] | IC50 [5, 11] | CC-v2 (curve classes) (recombinant human AChE [6]) | Efficacy (recombinant human AChE [6]) | IC50 (recombinant human AChE [7]; [12]) | AC50 (recombinant human AChE [8]) | other results
CCOC(=O)c1ccc(NC(=O)CN2CCCCC2)cc1 [Sulcaine, reference compound] | 19.6 µM | -2.1 | 30.9 µM and 27.5 µM and 15.5 µM | 15.3 µM | 23.4 ± 1.53 µM | -2.2 | -40.558 | 20.1 µM | 12.9 µM | 20.9 µM | 15.6 µM | 13.7 µM | 4 | 0 | 23.4 µM | – | IC50 (recombinant human AChE [3]; IC50 (uM)): 30.9 µM; IR or R (recombinant human AChE [8]): R; AC50 (recombinant human AChE [8]; activity_5): 24.3 µM and 27.3 µM; AC50 (recombinant human AChE [8]; activity_10): 24.3 µM and 27.3 µM; AC50 (recombinant human AChE [8]; activity_60): 21.7 µM and 27.3 µM
CCOP(=S)(OCC)OP(=S)(OCC)OCC [Sulfotepp] | 1.25 ± 0.14 µM | -1.1 | 5.02 µM and 8.18 µM and 2.52 µM and 5.16 µM and 2.24 µM and 2.59 µM | 0.96 ± 0.13 µM | 44.4 µM | -2.1 | – | 9.97 ± 1.14 µM | 15.3 ± 7.82 µM | 4.12 ± 0.28 µM | 0.06 ± 0.01 µM | 0.1 ± 0.02 µM | -1.1 | – | 7.89 µM | – | AC50 (recombinant human AChE [8]; activity_60): 55.9 µM and 70.3 µM
CCOP(=S)(Oc1cnc(C(C)(C)C)nc1)OC(C)C (stereo not shown) [Tebupirimfos] | 9.97 µM | -2.1 | 39.9 µM and 35.6 µM | 20.1 µM | 42.8 ± 2.79 µM | -2.1 | -96.664 | 46.2 µM | 28.2 µM | 24.2 µM | 2.08 µM | 3.7 µM | -1.1 | -95.03 | 4.29 µM | 70.3 µM and 55.9 µM and 49.8 µM | IC50 (recombinant human AChE [3]; read-out: IC50): 63.3 µM; IC50 (recombinant human AChE [7]; IC50 (uM)): 10 µM
CS/C(C)=N\OC(=O)N(C)SN(C)C(=O)O/N=C(\C)SC [Thiodicarb] | 5.43 ± 0.92 µM | -1.1 | 1.42 µM and 1.26 µM and 1.12 µM | 2.81 ± 0.32 µM | 3.97 ± 0.46 µM | -1.1 | -104.676 | 7.03 µM | 1.58 ± 0.57 µM | 2.62 ± 0.47 µM | 7.63 ± 1.05 µM | 7.8 ± 2.18 µM | -2.1 | -115.189 | 5.48 ± 1.36 µM | 4.44 µM and 3.95 µM (2×) and 3.14 µM and 6.27 µM and 5.59 µM and 1.57 µM and 1.98 µM | –
CNC(=O)ON=C(CSC)C(C)(C)C [Thiofanox] | 4.83 ± 0.82 µM | -1.1 | 1.59 µM and 1.78 µM | 3.04 ± 0.41 µM | 3.18 ± 0.59 µM | -1.1 | -92.082 | 1.91 ± 0.26 µM | 6.89 ± 6.18 µM | 3.46 ± 0.86 µM | 2.83 ± 0.59 µM | 3.64 µM | -1.1 | -91.728 | 2.59 ± 0.17 µM | 2.8 µM and 4.44 µM and 4.98 µM and 3.95 µM and 2.22 µM and 1.4 µM and 1.98 µM | –
CCN(CC)CCOc1ccc2c(c1)C(=O)c1cc(OCCN(CC)CC)ccc1-2 [Tilorone, reference compound] | 5.88 µM | -1.1 | 0.977 µM and 1.1 µM and 0.776 µM | 1.77 µM | 5.52 ± 1.16 µM | -1.1 | -92.014 | 4.18 µM | 1.34 µM | 1.42 µM | 19.6 µM | 25.7 µM | -1.1 | -84.739 | 5.46 µM | 6.85 µM (2×) and 6.11 µM (2×) and 4.85 µM and 7.69 µM and 9.68 µM | IR or R (recombinant human AChE [8]): R; reversibility of AChE inhibition (result in words) (recombinant human AChE [8]): reversible
CCCCSP(=O)(SCCCC)SCCCC [Tribufos] | 39.8 µM | -2.2 and -1.2 | 28.3 µM and 31 µM and 17.8 µM and 27.6 µM and 15.9 µM and 34.8 µM | 15.3 µM | 25.1 ± 2.88 µM | -2.2 and 4 | – | 35.3 µM | 12.2 µM | 12 µM | 31.4 µM | 14 µM | -1.1 | – | 3.66 µM | 88.5 µM | IC50 (recombinant human AChE [3]; read-out: IC50): 35.6 µM; IC50 (recombinant human AChE [7]; IC50 (uM)): 5.02 µM and 5.51 µM

Source: publication PMC8041433 (Environmental Health Perspectives, 2021)
